The values below are quoted from earlier work in patent US20180368457A1 (Petiva Private Limited, priority 2015, published 2018).

The conditions of data set [1]: in vivo.
For data set [2] the following is noted: storage temperature 25° C., relative humidity approximately 85%.
For data set [3] the following is noted: intravenously administered, within 6 hours of treatment.

Regarding `OC[C@H]1O[C@](O)(CO[C@H]2O[C@H](CO)[C@@H](O)[C@H](O)[C@H]2O)[C@@H](O)[C@@H]1O` [trehalulose, 1-O-α-D-glucopyranosyl-β-D-fructofuranose], the solubility result is on record as “more soluble in water than its structural isomers sucrose”. Moreover, the “glycemic index, in words” value in data set [1] is “less glycemic”.
Turning to `OCC1O[C@H](OC[C@H]2O[C@](O)(CO)C(O)C2O)C(O)C(O)[C@@H]1O` (stereo partly shown) [isomaltulose, Isomaltulose], the “glycemic index, in words” value in data set [1] was “very low GI”. Besides, the “water pick-up on storage” value in data set [2] is recorded as “No significant water pick-up”.
Take `O=C(CO)[C@H](O)[C@H](O)[C@H](O)CO` [allulose, D-Psicose]: the solubility entry is “high solubility”. In addition, the “glycemic index, in words” value in data set [1] is “low glycemic index”. In data set [3], the “excreted in the urine” value was “approximately 98%”.
